Tests used:
[1] = Long-term storage stability of high-purity stannsoporfin at 25° C. and 60% relative humidity; format: physicochemical; details: 25° C./60% RH
Procedure: (§1) The long-term stability of the compound was studied under two different storage conditions: 25° C. (+/−2° C.) and 60% relative humidity (+/−5%); and 40° C. (+/−2° C.) and 75% relative humidity (+/−5%). Primary packaging for the compound was a 4-mil polyethylene bag and secondary packaging for the compound was a 4 mil polyethylene bag, stored in an HDPE drum.
(§2) Table 5 and Table 6 show stability data for the batch described in Table 3, under the 25° C./60% RH and 40° C./75% RH conditions, respectively. Table 7 and Table 8 show stability data for the batch described in Table 4 under the 25° C./60% RH and 40° C./75% RH conditions, respectively. Data for the zero-month time point was taken from the batch release analysis (the zero time point represents the actual date when samples were placed in the stability test chambers). The samples were analyzed at approximately 3 months and approximately 6 months after the samples were placed under the storage conditions.

[2] = Long-term storage stability of high-purity stannsoporfin at 40° C. and 75% relative humidity; format: physicochemical; details: 40° C./75% RH
Procedure: as §1, §2

[3] = batch of Table 3 (0.840 kg), 0 months
[4] = batch of Table 3 (0.840 kg), 3 months
[5] = batch of Table 3 (0.840 kg), 6 months
[6] = batch of Table 4 (1.364 kg), 0 months
[7] = batch of Table 4 (1.364 kg), 3 months
[8] = batch of Table 4 (1.364 kg), 6 months

Substance: tin (IV) mesoporphyrin IX dichloride [stannsoporfin]
- HPLC assay (w/w as is) [1, 3]: 100.4%
- HPLC assay (w/w, solvent-free anhydrous basis) [1, 3]: 100.7%
- HPLC purity (impurity peak at RRt retention time 0.72-0.73) [1, 3]: 0.06%
- HPLC purity (total impurities) [1, 3]: 0.3
- Water content (Karl Fischer, coulometric) [1, 3]: Trace < 1%
- HPLC assay (w/w as is) [1, 4]: 99.6%
- HPLC assay (w/w, solvent-free anhydrous basis) [1, 4]: 99.8%
- HPLC purity (impurity peak at RRt retention time 0.72-0.73) [1, 4]: <0.05%
- HPLC purity (total impurities) [1, 4]: 0.22
- Water content (Karl Fischer, coulometric) [1, 4]: <1% (0.1%)
- HPLC assay (w/w as is) [1, 5]: 98.2%
- HPLC assay (w/w, solvent-free anhydrous basis) [1, 5]: 98.4%
- HPLC purity (impurity peak at RRt retention time 0.72-0.73) [1, 5]: 0.07%
- HPLC purity (total impurities) [1, 5]: 0.24
- Water content (Karl Fischer, coulometric) [1, 5]: <1% (0.1%)
- HPLC assay (w/w as is) [1, 6]: 102.3%
- HPLC assay (w/w, solvent-free anhydrous basis) [1, 6]: 102.3%
- HPLC parity (total impurities) [1, 6]: 0.22
- HPLC purity (impurity peak at RRt retention time 0.72-0.73) [1, 6]: 0.06%
- Water content (Karl Fischer, coulometric) [1, 6]: Trace < 1%
- HPLC assay (w/w as is) [1, 7]: 102.0%
- HPLC assay (w/w, solvent-free anhydrous basis) [1, 7]: 102.1%
- HPLC parity (total impurities) [1, 7]: 0.29
- HPLC purity (impurity peak at RRt retention time 0.72-0.73) [1, 7]: 0.05%
- Water content (Karl Fischer, coulometric) [1, 7]: <1% (0.1%)
- HPLC assay (w/w as is) [1, 8]: 98.4%
- HPLC assay (w/w, solvent-free anhydrous basis) [1, 8]: 98.5%
- HPLC parity (total impurities) [1, 8]: 0.19
- HPLC purity (impurity peak at RRt retention time 0.72-0.73) [1, 8]: 0.05%
- Water content (Karl Fischer, coulometric) [1, 8]: <1% (0.1%)
- HPLC assay (w/w as is) [2, 3]: 100.4%
- HPLC assay (w/w, solvent-free anhydrous basis) [2, 3]: 100.7%
- HPLC purity (impurity peak at RRt retention time 0.72-0.73) [2, 3]: 0.06%
- HPLC purity (total impurities) [2, 3]: 03
- Water content (Karl Fischer, coulometric) [2, 3]: Trace <1%
- HPLC assay (w/w as is) [2, 4]: 100.9%
- HPLC assay (w/w, solvent-free anhydrous basis) [2, 4]: 101.2%
- HPLC purity (impurity peak at RRt retention time 0.72-0.73) [2, 4]: <0.05%
- HPLC purity (total impurities) [2, 4]: 0.28
- Water content (Karl Fischer, coulometric) [2, 4]: <1% (0.2%)
- HPLC assay (w/w as is) [2, 5]: 99.6%
- HPLC assay (w/w, solvent-free anhydrous basis) [2, 5]: 99.8%
- HPLC purity (impurity peak at RRt retention time 0.72-0.73) [2, 5]: 0.06%
- HPLC purity (total impurities) [2, 5]: 0.26
- Water content (Karl Fischer, coulometric) [2, 5]: <1% (0.1%)
- HPLC assay (w/w as is) [2, 6]: 102.3%
- HPLC assay (w/w, solvent-free anhydrous basis) [2, 6]: 102.3%
- HPLC purity (impurity peak at RRt retention time 0.72-0.73) [2, 6]: 0.06%
- HPLC purity (total impurities) [2, 6]: 0.22
- Water content (Karl Fischer, coulometric) [2, 6]: Trace < 1%
- HPLC assay (w/w as is) [2, 7]: 101.0%
- HPLC assay (w/w, solvent-free anhydrous basis) [2, 7]: 101.1%
- HPLC purity (impurity peak at RRt retention time 0.72-0.73) [2, 7]: <0.05%
- HPLC purity (total impurities) [2, 7]: 0.29
- Water content (Karl Fischer, coulometric) [2, 7]: <1% (0.1%)
- HPLC assay (w/w as is) [2, 8]: 97.7%
- HPLC assay (w/w, solvent-free anhydrous basis) [2, 8]: 97.8%
- HPLC purity (impurity peak at RRt retention time 0.72-0.73) [2, 8]: 0.06%
- HPLC purity (total impurities) [2, 8]: 0.24
- Water content (Karl Fischer, coulometric) [2, 8]: <1% (0.1%)
